Experimental data taken from ChEMBL document CHEMBL4402583, “Rational Substitution of ε-Lysine for α-Lysine Enhances the Cell and Membrane Selectivity of Pore-Forming Melittin” (J Med Chem, 2020).
Converted amounts (≈) assume the structure as drawn. The source made the active and inactive calls. The calls are words filed in the database; no cut-off is given here.

Tests used:
Candida albicans = assay: Antifungal activity against Candida albicans assessed as reduction in fungal growth incubated for 24 hrs by broth microdilution method; type: functional
Acinetobacter baumannii [1] = assay: Antibacterial activity against multidrug-resistant Acinetobacter baumannii assessed as reduction in bacterial growth incubated for 24 hrs by broth microdilution method; type: functional
Enterococcus = assay: Antibacterial activity against vancomycin-resistant Enterococcus assessed as reduction in bacterial growth incubated for 24 hrs by broth microdilution method; type: functional
Staphylococcus aureus [2] = assay: Antibacterial activity against methicillin-sensitive Staphylococcus aureus assessed as reduction in bacterial growth incubated for 24 hrs by broth microdilution method; type: functional
NHDF [3] = assay: Cytotoxicity against HDF cells assessed as truncation and reduction in cytoskeleton at 500 ug/ml incubated for 24 hrs by Alexa Fluor […] phalloidin-FITC/Hoescht dye staining based fluorescence microscopic analysis; type: cell-based; conditions: human
Staphylococcus aureus [4] = assay: Antibacterial activity against methicillin-resistance Staphylococcus aureus assessed as reduction in bacterial growth incubated for 24 hrs by broth microdilution method; type: functional
Enterobacteriaceae = assay: Antibacterial activity against Carbapenem-Resistant Enterobacteriaceae assessed as reduction in bacterial growth incubated for 24 hrs by broth microdilution method; type: functional
Pseudomonas aeruginosa = assay: Antibacterial activity against Pseudomonas aeruginosa assessed as reduction in bacterial growth incubated for 24 hrs by broth microdilution method; type: functional
[5] = Cytotoxicity against HDF cells assessed as cell viability at 500 ug/ml incubated for 24 hrs by MTS assay relative to control; type: cell-based; conditions: human, HDF cells (NHDF, human dermal fibroblasts); read-out: Activity
[6] = Stability of the compound in rabbit tear fluid measured after 2 hrs by UPLC-MS analysis; type: ADME, Oryctolagus cuniculus
Lipid bilayer [7] = assay: Binding affinity to zwitterionic DOPC/cholesterol large unilamellar vesicles assessed as transformation of peptide secondary structure to alpha-helical conformation by CD spectropolarimetry
Enterococcus faecalis [8] = assay: Antibacterial activity against vancomycin-resistant Enterococcus faecalis 1010 assessed as log10 reduction in bacterial viability at 2 to 4 times MIC incubated for 30 mins in MHB medium followed by reincubation on MH agar plate for 24 to 48 hrs by time kill kinetics analysis; type: functional
Escherichia coli [9] = assay: Induction of pore formation in intact Escherichia coli 1004 cell membrane assessed as SG uptake at 2 times MIC by SG dye based fluorescence based assay; type: organism-based
Lipid bilayer [10] = assay: Induction of pore formation in zwitterionic DOPC/cholesterol large unilamellar vesicles assessed as calcein release at 0.39 to 50 uM measured for 60 mins by fluorescence based assay
Acinetobacter baumannii [11] = assay: Antibacterial activity against Acinetobacter baumannii 1001 assessed as reduction in bacterial viability at 2 or 4 times MIC incubated up to 24 hrs in MHB medium followed by reincubation on MH agar plate for 24 to 48 hrs by time kill kinetics assay; type: functional, organism-based
Klebsiella pneumoniae = assay: Antibacterial activity against Klebsiella pneumoniae 1008 assessed as reduction in bacterial viability at 2 or 4 times MIC incubated up to 24 hrs in MHB medium followed by reincubation on MH agar plate for 24 to 48 hrs by time kill kinetics assay; type: functional, organism-based
[12] = Stability of the compound in rabbit tear fluids assessed as parent compound remaining measured after 4 hrs by UPLC-MS analysis; type: ADME, Oryctolagus cuniculus; conditions: tear fluid, read-out: Stability
Enterococcus faecalis [13] = assay: Antibacterial activity against vancomycin-resistant Enterococcus faecalis ATCC 29212 assessed as log10 reduction in bacterial viability at 2 to 4 times MIC incubated for 30 mins in MHB medium followed by reincubation on MH agar plate for 24 to 48 hrs by time kill kinetics analysis; type: functional
Enterococcus faecalis [14] = assay: Induction of pore formation in intact vancomycin-resistant Enterococcus faecalis 1002 cell membrane assessed as SG uptake at 2 times MIC by SG dye based fluorescence based assay; type: organism-based
Lipid bilayer [15] = assay: Induction of pore formation in negatively charged DOPE/DOPG large unilamellar vesicles assessed as calcein release at 0.39 to 50 uM measured for 60 mins by fluorescence based assay
NHDF [16] = assay: Cytotoxicity against HDF cells assessed as reduction in metabolic activity at 16 ug/ml incubated for 24 hrs by MTS assay; type: ADME, cell-based; conditions: human
Acinetobacter baumannii [17] = assay: Induction of pore formation in intact Acinetobacter baumannii 1001 cell membrane assessed as SG uptake at 2 times MIC by SG dye based fluorescence based assay; type: organism-based
[18] = Cytotoxicity against HDF cells assessed as minimum cytotoxic concentration incubated for 24 hrs by Alexa Fluor […] phalloidin-FITC/Hoescht dye staining based fluorescence microscopic analysis; type: cell-based; conditions: human, HDF cells (NHDF, human dermal fibroblasts)
Escherichia coli [19] = assay: Antibacterial activity against Escherichia coli 1004 assessed as reduction in bacterial viability at 2 or 4 times MIC incubated up to 24 hrs in MHB medium followed by reincubation on MH agar plate for 24 to 48 hrs by time kill kinetics assay; type: functional, organism-based
Lipid bilayer [20] = assay: Induction of pore formation in negatively charged DOPE/DOPG large unilamellar vesicles assessed as ratio of peptide to lipid molar ratio that induces 50% calcein leakage measured for 60 mins by calcein dequenching based fluorescence based assay
Enterococcus faecalis [21] = assay: Induction of pore formation in intact vancomycin-resistant Enterococcus faecalis ATCC 29212 cell membrane assessed as SG uptake at 2 times MIC by SG dye based fluorescence based assay; type: organism-based
[22] = Cytotoxicity against HDF cells assessed as minimum cytotoxic concentration incubated for 24 hrs by MTS assay; type: cell-based; conditions: human, HDF cells (NHDF, human dermal fibroblasts)
Enterococcus faecalis [23] = assay: Antibacterial activity against vancomycin-resistant Enterococcus faecalis 1002 assessed as log10 reduction in bacterial viability at 2 to 4 times MIC incubated for 30 mins in MHB medium followed by reincubation on MH agar plate for 24 to 48 hrs by time kill kinetics analysis; type: functional
NHDF [24] = assay: Cytotoxicity against HDF cells at 31.25 ug/ml incubated for 24 hrs by Alexa Fluor […] phalloidin-FITC/Hoescht dye staining based fluorescence microscopic analysis; type: cell-based; conditions: human
Staphylococcus aureus [25] = assay: Antibacterial activity against Staphylococcus aureus assessed as reduction in bacterial growth incubated for 24 hrs by broth microdilution method; type: functional
NHDF [26] = assay: Cytotoxicity against HDF cells assessed as reduction in metabolic activity at 32 ug/ml incubated for 24 hrs by MTS assay; type: ADME, cell-based; conditions: human

| SMILES | MIC (Candida albicans) [µg/mL] | MIC50 (Candida albicans) [µg/mL] | MIC (Acinetobacter baumannii [1]) [µg/mL] | MIC50 (Acinetobacter baumannii [1]) [µg/mL] | MIC (Enterococcus) [µg/mL] | MIC50 (Enterococcus) [µg/mL] | MIC50 (Staphylococcus aureus [2]) [µg/mL] | MIC50 (Staphylococcus aureus [4]) [µg/mL] | MIC (Enterobacteriaceae) [µg/mL] | MIC50 (Enterobacteriaceae) [µg/mL] | MIC (Pseudomonas aeruginosa) [µg/mL] | MIC50 (Pseudomonas aeruginosa) [µg/mL] | Activity (Lipid bilayer [7]) | Activity (Lipid bilayer [10]) | Activity (Lipid bilayer [15]) | MCC at 24 h [18] [µg/mL] | Ratio (Lipid bilayer [20]) | MCC at 24 h [22] [µg/mL] | other results |
| --- | --- | --- | --- | --- | --- | --- | --- | --- | --- | --- | --- | --- | --- | --- | --- | --- | --- | --- | --- |
| CC[C@H](C)[C@H](NC(=O)CN)C(=O)NCC(=O)N[C@@H](C)C(=O)N[C@H](C(=O)N[C@@H](CC(C)C)C(=O)NCCC[C@@H](CN)C(=O)N[C@H](C(=O)N[C@@H](CC(C)C)C(=O)N[C@H](C(=O)N[C@H](C(=O)NCC(=O)N[C@@H](CC(C)C)C(=O)N1CCC[C@H]1C(=O)N[C@@H](C)C(=O)N[C@@H](CC(C)C)C(=O)N[C@H](C(=O)N[C@@H](CO)C(=O)N[C@@H](Cc1c[nH]c2ccccc12)C(=O)N[C@H](C(=O)NCCC[C@@H](CN)C(=O)N[C@@H](CCCNC(=N)N)C(=O)NCCC[C@@H](CN)C(=O)N[C@@H](CCCNC(=N)N)C(=O)N[C@@H](CCC(N)=O)C(=O)N[C@@H](CCC(N)=O)C(N)=O)[C@@H](C)CC)[C@@H](C)CC)[C@@H](C)O)[C@@H](C)O)C(C)C)C(C)C | 4 to 8 (≈ 1.41 to 2.81 µM) | 4 (≈ 1.41 µM) | 4 to 8 (≈ 1.41 to 2.81 µM) | 8 (≈ 2.81 µM) | 4 to 16 (≈ 1.41 to 5.62 µM) | 8 (≈ 2.81 µM) | 64 (≈ 22.5 µM) | 64 (≈ 22.5 µM) | 4 to 64 (≈ 1.41 to 22.5 µM) | 8 (≈ 2.81 µM) | 16 to 64 (≈ 5.62 to 22.5 µM) | 32 (≈ 11.2 µM) |  |  |  |  |  |  | MIC (Staphylococcus aureus [2]): 16 to 128 µg/mL (≈ 5.62 to 45 µM); Activity (NHDF [3]): Toxic; viability at 24 h, 500 ug/ml [5]: 102% |
| CC[C@H](C)[C@H](NC(=O)CN)C(=O)NCC(=O)N[C@@H](C)C(=O)N[C@H](C(=O)N[C@@H](CC(C)C)C(=O)N[C@@H](CCCCN)C(=O)N[C@H](C(=O)N[C@@H](CC(C)C)C(=O)N[C@H](C(=O)N[C@H](C(=O)NCC(=O)N[C@@H](CC(C)C)C(=O)N1CCC[C@H]1C(=O)N[C@@H](C)C(=O)N[C@@H](CC(C)C)C(=O)N[C@H](C(=O)N[C@@H](CO)C(=O)N[C@@H](Cc1c[nH]c2ccccc12)C(=O)N[C@H](C(=O)N[C@@H](CCCCN)C(=O)N[C@@H](CCCNC(=N)N)C(=O)N[C@@H](CCCCN)C(=O)N[C@@H](CCCNC(=N)N)C(=O)N[C@@H](CCC(N)=O)C(=O)N[C@@H](CCC(N)=O)C(N)=O)[C@@H](C)CC)[C@@H](C)CC)[C@@H](C)O)[C@@H](C)O)C(C)C)C(C)C [MELITTIN] | 4 to 8 (≈ 1.41 to 2.81 µM) | 4 (≈ 1.41 µM) | 2 to 4 (≈ 0.703 to 1.41 µM) | 4 (≈ 1.41 µM) | 0.5 to 8 (≈ 0.176 to 2.81 µM) | 4 (≈ 1.41 µM) | 4 (≈ 1.41 µM) | 4 (≈ 1.41 µM) | 8 to 32 (≈ 2.81 to 11.2 µM) | 8 (≈ 2.81 µM) |  | 16 (≈ 5.62 µM) | Active | Active | Active | > 8 | 0.04 | > 8 | Stability [6]: Stable; log(activity) (Enterococcus faecalis [8]): >5; Activity (Escherichia coli [9]): Active; Activity (Acinetobacter baumannii [11]): Active; Activity (Klebsiella pneumoniae): Active; remaining at 4 h [12]: 85.3%; log(activity) (Enterococcus faecalis [13]): >5; Activity (Enterococcus faecalis [14]): Active; Activity (NHDF [16]): Toxic; Activity (Acinetobacter baumannii [17]): Active; Activity (Escherichia coli [19]): Active; Activity (Enterococcus faecalis [21]): Active; log(activity) (Enterococcus faecalis [23]): >5 |
| CC[C@H](C)[C@H](NC(=O)CN)C(=O)NCC(=O)N[C@@H](C)C(=O)N[C@H](C(=O)N[C@@H](CC(C)C)C(=O)N[C@@H](CCCCN)C(=O)N[C@H](C(=O)N[C@@H](CC(C)C)C(=O)N[C@H](C(=O)N[C@H](C(=O)NCC(=O)N[C@@H](CC(C)C)C(=O)N1CCC[C@H]1C(=O)N[C@@H](C)C(=O)N[C@@H](CC(C)C)C(=O)N[C@H](C(=O)N[C@@H](CO)C(=O)N[C@@H](Cc1c[nH]c2ccccc12)C(=O)N[C@H](C(=O)NCCC[C@@H](CN)C(=O)N[C@@H](CCCNC(=N)N)C(=O)N[C@@H](CCCCN)C(=O)N[C@@H](CCCNC(=N)N)C(=O)N[C@@H](CCC(N)=O)C(=O)N[C@@H](CCC(N)=O)C(N)=O)[C@@H](C)CC)[C@@H](C)CC)[C@@H](C)O)[C@@H](C)O)C(C)C)C(C)C | 4 to 8 (≈ 1.41 to 2.81 µM) |  |  |  |  |  |  |  |  |  | 4 to 16 (≈ 1.41 to 5.62 µM) |  | inactive | Active | Active | > 16 | 0.24 | > 16 | Activity (NHDF [24]): Toxic; MIC (Staphylococcus aureus [25]): 4 to 8 µg/mL (≈ 1.41 to 2.81 µM); Activity (NHDF [26]): Toxic |
